The results in this text go back to patent US12433954B2, “Methods of activating anti-CD19 chimeric antigen receptor (CAR) T cells using amphiphilic ligand conjugates comprising CAR-targeting protein sequence motifs” (Massachusetts Institute of Technology, priority 2020, dated 2025).

Ends that are not written are not given here.

Assay [1] deals with FMC63 CAR T cells. As to the kind of experiment: Long-term in vivo boosting, CAR T expansion in peripheral blood. The settings on record: day 13; vaccinations day 2 and day 9 with 25 μg cyclic-di-GMP; lymphodepleted mice; vs control mice. An excerpt: FIG. 19A depicts a timeline for administration of CD45.1+ donor FMC63 CAR T cells to CD45.2+ recipient mice on Day 1 following lymphodepletion on day 0. The mice were further administered a first dose of amph-mimotope or bivalent amph-mimotope on Day 2 and a second dose on Day 9. Peripheral blood was obtained from the mice on Day 13 and expansion of CD45.1+ CAR T cells were quantified by flow cytometry. FIG. 19B provides plots measuring the percentage of total T cells expressing CD45.1 and FMC63 CAR in peripheral blood isolated on day 13 from mice treated according to FIG. 19A. […] Control mice received no vaccination. […] Briefly, CD45.2^+ recipient mice received lymphodepeletion preconditioning (sublethal irradiation, 500cGy) on day 0. The mice were then administered 1×10^6 CD45.1^+ donor FMC63 CAR T cells on day 1, followed by two vaccinations on day 2 and day 9 using the following formulation: • (i) 10 ug of monovalent amph-mimotope (Amph-K-C2)+25 μg of cyclic-di-GMP in 1×PBS; or • (ii) 20 ug of amph-Bi-F12-mimotope (PEG4 or PEG8)+25 μg of cyclic-di-GMP in 1×PBS. Control mice received no vaccination. On day 13, peripheral blood was collected for analysis of CAR T expansion in response to amph-mimotope vaccine boosting by flow cytometry. CAR T cells were defined as CD45.1^+CAR^+ cells and were quantified as proportion of total CD8+ T cells.

In assay [2] the target is FMC63 IgG. As to the kind of experiment: Yeast clone staining with biotinylated FMC63 IgG, Kd from MFI (FACS). The format is binding, mouse. The settings on record: yeast clones, 0.01-1000 nM biotinylated FMC63 IgG. An excerpt: In order to validate specific sequences, clones were isolated and measured for their affinity to FMC63. Specifically, a subset of mimotope clones were selected from the fixed library sequence described in Example 5.
FMC63 IgG, sequence (as listed by the source): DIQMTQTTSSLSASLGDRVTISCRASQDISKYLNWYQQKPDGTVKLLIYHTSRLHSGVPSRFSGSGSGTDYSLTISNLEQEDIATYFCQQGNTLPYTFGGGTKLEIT
FMC63 IgG, sequence (as listed by the source): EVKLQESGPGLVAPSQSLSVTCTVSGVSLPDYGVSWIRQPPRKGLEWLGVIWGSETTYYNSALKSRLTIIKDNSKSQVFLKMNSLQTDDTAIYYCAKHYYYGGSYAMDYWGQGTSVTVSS

The target in assay [3] is FMC63 scFv. As to the kind of experiment: Yeast clone staining with biotinylated FMC63 scFv, Kd by FACS. To be noted: yeast clones, biotinylated FMC63 scFv monomer. The class given is binding, mouse. How it is done:
FIGS. 10A & 10B provide graphs showing binding of yeast clones expressing the indicated mimotopes to biotinylated FMC63 IgG (FIG. 10A) or biotinylated FMC63 scFv (FIG. 10B) at increasing concentration (0.01-1000 nM).
Identifying specific mimotope clones of varying affinities will provide flexibility in treatments. In order to validate specific sequences, clones were isolated and measured for their affinity to FMC63. Specifically, a subset of mimotope clones were selected from the fixed library sequence described in Example 5. […] Given the FDA-approved CAR is an scFV derived from the parental IgG, mimotope binding to FMC63-scFv monomer was tested using biotinylated FMC63 scFV to measure Kd by FACS (FIG. 10B). […] This screen positively identified mimotope clones with varying affinities to FMC63 which may be used for a tailored vaccine approach.
Background: Flow cytometry measures light scatter and fluorescence of single cells or particles in a stream.

FMC63 scFv, sequence (as listed by the source): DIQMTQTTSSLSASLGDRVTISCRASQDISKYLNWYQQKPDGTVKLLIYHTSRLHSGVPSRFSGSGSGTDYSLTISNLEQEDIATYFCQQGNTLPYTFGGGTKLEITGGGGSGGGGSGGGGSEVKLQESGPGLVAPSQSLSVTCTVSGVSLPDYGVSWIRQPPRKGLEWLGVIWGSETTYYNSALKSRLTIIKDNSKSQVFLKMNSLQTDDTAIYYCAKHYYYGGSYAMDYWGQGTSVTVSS

For “amph-bi-F12-peg8 (GGGSASRICPWNCKEL; not fully specified (C-terminus); cysteine pairing not given here; also: bivalent amphiphile conjugate via C-terminal PEG8 linker)”, in assay [1], the “expansion of CAR T cells (CD45.1+CAR+ of total CD8+ T cells) in peripheral blood” value is recorded as “highest level of proliferation”. In general, Kd refers to the concentration at which binding is half-saturated. Consider “D12 (RICPWSCRAP; Synthetic FMC63 Mimotope (D12)) [Clone D12]”, for which the dissociation constant Kd in assay [2] and in assay [3] was more than 1000 nM each time.
